From US20220281915A1, “COMPOSITIONS COMPRISING BOVINE ADRENAL MEDULLA 8-22 (BAM8-22) PEPTIDE ANALOGS AND METHODS OF USE” (OKYO Pharma Limited, priority 2019, published 2022)
Where two headings read alike, the source gives them in different places. Non-standard residues stand in square brackets, D forms with d. Residues, ends and D or L forms follow the SMILES beside them. No end group written: not given here. Nle = CCCC[C@H](N)C(=O)O

How the values were obtained:
human MRGPRX1 receptor = human MRGPRX1 receptor (Homo sapiens, UniProt Q96LB2); assay: DiscoverX calcium mobilization cell culture assay, agonist mode (FLIPR Tetra); format: cell-based; conditions: Table 2 initial screening data, agonist format, peptides
human MRGPRX1 receptor, sequence (Q96LB2 whole entry): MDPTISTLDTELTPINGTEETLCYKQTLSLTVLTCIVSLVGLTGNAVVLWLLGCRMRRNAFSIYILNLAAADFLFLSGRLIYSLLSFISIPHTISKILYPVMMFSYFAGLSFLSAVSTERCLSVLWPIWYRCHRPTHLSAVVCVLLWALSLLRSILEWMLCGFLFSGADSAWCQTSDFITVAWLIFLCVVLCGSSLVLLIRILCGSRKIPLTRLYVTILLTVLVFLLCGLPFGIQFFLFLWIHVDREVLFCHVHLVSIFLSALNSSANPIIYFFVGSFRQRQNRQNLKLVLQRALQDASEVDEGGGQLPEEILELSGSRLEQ
Procedure: DiscoverX® Calcium cell line overexpressing naturally Gq coupled, wildtype human MRGPRX1 receptor was used to detect calcium mobilization in response to agonist stimulation of the receptor. Cells were plated in a 384-well plate and incubated overnight at 37° C. and 5% CO2 to allow the cells to attach and grow. Culture media was removed and replaced with dye loading buffer from the Calcium No WashPLUS detection kit according to the recommended protocol. Cells were incubated with peptides to induce response and calcium mobilization was detected using a FLIPR® Tetra (Molecular Devices, Inc.).
Compound activity was analyzed using Chemical and Biological Information System (CBIS) data analysis suite (ChemInnovation, CA). For agonist mode assays, percentage activity is calculated using the following formula: % Activity=100%×(mean RFU of test sample−mean RFU of vehicle control)/(mean MAX RFU control ligand−mean RFU of vehicle control). […] RFU means relative fluorescence units.

mechanical allodynia [1] = conditions: rat, spinal nerve ligation, intrathecal; cited from earlier work
mechanical allodynia [2] = conditions: mouse, chronic constriction injury, intrathecal; cited from earlier work

Molecule	EC50 (human MRGPRX1 receptor) [nM]	baseline nociception (mechanical allodynia [1])	mechanical allodynia (mechanical allodynia [1])	baseline nociception (mechanical allodynia [2])	mechanical allodynia (mechanical allodynia [2])
CCCC[C@H](NC(=O)[C@H](Cc1c[nH]c2ccccc12)NC(=O)[C@H](Cc1c[nH]c2ccccc12)NC(=O)[C@H](CCC(=O)O)NC(=O)[C@@H]1CCCN1C(=O)[C@H](CCCNC(=N)N)NC(=O)CNC(=O)[C@@H](N)C(C)C)C(=O)N[C@@H](CC(=O)O)C(=O)N[C@@H](Cc1ccc(O)cc1)C(=O)N[C@@H](CCC(N)=O)C(=O)N[C@@H](CCCCN)C(=O)N[C@@H](CCCNC(=N)N)C(=O)N[C@@H](Cc1ccc(O)cc1)C(=O)NCC(=O)O [OK-205, VGRPEWW-Nle-DYQKRYG (SEQ ID NO: 22)] (H-VGRPEWW[Nle]DYQKRYG-OH; N-terminus and C-terminus assumed)	11.1	–	–	–	–
CSCC[C@H](NC(=O)[C@H](Cc1c[nH]c2ccccc12)NC(=O)[C@H](Cc1c[nH]c2ccccc12)NC(=O)[C@H](CCC(=O)O)NC(=O)[C@@H]1CCCN1C(=O)[C@H](CCCNC(=N)N)NC(=O)CNC(=O)[C@H](N)C(C)C)C(=O)N[C@@H](CC(=O)O)C(=O)N[C@@H](Cc1ccc(O)cc1)C(=O)N[C@@H](CCC(N)=O)C(=O)N[C@@H](CCCCN)C(=O)N[C@@H](CCCNC(=N)N)C(=O)N[C@@H](Cc1ccc(O)cc1)C(=O)NCC(=O)O [OK-206, dV-GRPEWWMDYQKRY-dG (SEQ ID NO: 23)] (H-[dV]GRPEWWMDYQKRYG-OH; N-terminus and C-terminus assumed)	1.02	–	–	–	–
GRPEWWMDYQKRY [OK-203, GRPEWWMDYQKRY (SEQ ID NO: 3)]	0.67	–	–	–	–
VGRPEWWMDSQKRYG [OK-202, VGRPEWWMDSQKRYG (SEQ ID NO: 54)]	1580	–	–	–	–
VGRPEWWMDYQKRYG [BAM-8-22, VGRPEWWMDYQKRYG (SEQ ID NO: 21)]	1.33	did not affect baseline nociception	attenuates mechanical allodynia	did not affect baseline nociception	attenuates mechanical allodynia
